The values that follow come from ChEMBL document CHEMBL1201862, “PubChem BioAssay data set” (2004).

What is called GI50 is the concentration giving 50% growth inhibition.

Among the test systems are COLO 205; HT-29; EKVX; OVCAR-8; HOP-62; UO-31; NCI-H460; SW-620; U-251; SK-MEL-2; T47D; RPMI-8226; OVCAR-4; Malme-3M; MOLT-4; M14; SR; OVCAR-5; CCRF-CEM; HCC 2998.
Holding throughout (assay): DTP human tumour cell line panel, 48 h

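Assay format: 96-well plates, 48-hour exposure. GI50 marks 50% less growth.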 Activity calls are given as the source filed them. No stated cut-off is given here; in the data, active = GI50 up to about 1.1 µM and inactive = higher.

Consider `COc1cccc(Nc2nc(-c3cccs3)nc3cc(OC)c(OC)cc23)c1`, for which the GI50 in the test on COLO 205 was 23.2 µM (inactive); in the test on HT-29 it was 24.8 µM (inactive); with EKVX, 35.8 µM (inactive); in the test on OVCAR-8, 23.9 µM (inactive); in the test with HOP-62, 27.8 µM (inactive); in the test on UO-31 it was 51.8 µM (inactive). Further, the GI50 in the test with NCI-H460 is 28.8 µM (inactive); in the test on SW-620 it was 29 µM (inactive); with U-251, 23.8 µM (inactive); in the test on SK-MEL-2, 35.8 µM (inactive); in the test on T47D, 42.8 µM (inactive); with RPMI-8226, 13.2 µM (inactive). Besides, the GI50 with OVCAR-4 is 41.3 µM (inactive); in the test with Malme-3M, 68.9 µM (inactive); with MOLT-4 it was 53.6 µM (inactive); in the test on M14 it was 35.2 µM (inactive); with SR, 11 µM (inactive); in the test with OVCAR-5 it was 31.9 µM (inactive).
As for `COc1ccc(/C=C/c2nsc(/C=C/c3ccc(OC)cc3)n2)cc1`, the GI50 is > 100 µM (inactive) in the test on COLO 205; 36.5 µM (inactive) in the test with HT-29; 19.3 µM (inactive) in the test on CCRF-CEM; > 100 µM (inactive) in the test on EKVX; > 100 µM (inactive) in the test on OVCAR-8; > 100 µM (inactive) in the test on HOP-62. Further, the GI50 is > 100 µM (inactive) in the test with UO-31; 24.9 µM (inactive) in the test with NCI-H460; 44.7 µM (inactive) in the test with U-251; > 100 µM (inactive) with SK-MEL-2; 38 µM (inactive) in the test on T47D; 28.7 µM (inactive) with RPMI-8226. In addition, the GI50 was > 100 µM (inactive) in the test with OVCAR-4; > 100 µM (inactive) in the test on Malme-3M; 33 µM (inactive) with MOLT-4; > 100 µM (inactive) in the test with M14; 27.3 µM (inactive) in the test with SR; > 100 µM (inactive) in the test on OVCAR-5.
In the case of `COc1ccc(C2=C[C@]3(O)CCCN3C[C@@H]2c2ccc(OC)c(OC)c2)cc1`, the GI50 in the test with COLO 205, in the test on HT-29, in the test with CCRF-CEM, with EKVX, in the test on OVCAR-8 and in the test on HOP-62 was < 0.0001 µM (active) throughout. Further, the GI50 is < 0.0001 µM (active) in the test with UO-31; < 0.0001 µM (active) in the test with NCI-H460; < 0.0001 µM (active) in the test with SW-620; < 0.0001 µM (active) with U-251; < 0.0001 µM (active) in the test on SK-MEL-2; > 0.01 µM (active) in the test on RPMI-8226. The GI50 was > 0.01 µM (active) with OVCAR-4; < 0.0001 µM (active) in the test on Malme-3M; > 0.01 µM (active) with HCC 2998; < 0.0001 µM (active) in the test on MOLT-4; < 0.0001 µM (active) with M14; < 0.0001 µM (active) with SR. Moreover, the GI50 with OVCAR-5 is < 0.0001 µM (active).
For `Cc1ccc2nc3ccccc3c(C3C4C(=O)N(c5ccc(Br)cc5Cl)C(=O)C4ON3C(C(N)=O)c3ccccc3)c2c1` (stereo not given), the GI50 with COLO 205 was > 25 µM (inactive); in the test on HT-29 it was 11.2 µM (inactive); with CCRF-CEM, 8.13 µM (inactive); in the test on EKVX, 6.56 µM (inactive); in the test on OVCAR-8 it was > 25 µM (inactive); with HOP-62, > 25 µM (inactive). The GI50 is 7.41 µM (inactive) in the test with UO-31; > 25 µM (inactive) in the test with NCI-H460; > 25 µM (inactive) in the test with SW-620; > 25 µM (inactive) in the test on U-251; 18.1 µM (inactive) in the test with SK-MEL-2; > 25 µM (inactive) in the test on T47D. Also, the GI50 in the test with OVCAR-4 was 19.7 µM (inactive); in the test on Malme-3M it was > 25 µM (inactive); with MOLT-4 it was 8.73 µM (inactive); with M14, 11.6 µM (inactive); in the test on SR it was 7.26 µM (inactive); with OVCAR-5, > 25 µM (inactive).
For the compound `CC(c1ccccc1)n1cncc1C(=O)NN1CCN(C)CC1` (stereo not given), the GI50 in the test on COLO 205, with HT-29, in the test with CCRF-CEM, in the test with EKVX, with OVCAR-8 and in the test with HOP-62 was > 10 µM (inactive) in each case. Also, the GI50 in the test with NCI-H460, in the test on SW-620, in the test on U-251, in the test on SK-MEL-2, in the test on T47D and in the test with RPMI-8226 was > 10 µM (inactive) each time. Moreover, the GI50 with OVCAR-4, in the test with Malme-3M, in the test with MOLT-4, with M14, with SR and in the test on OVCAR-5 was > 10 µM (inactive) throughout.
Turning to `COc1cccc2c1CCc1sc(CN3CCN(C)CC3)nc1-2`, the GI50 is 61.2 µM (inactive) in the test on COLO 205; 20.4 µM (inactive) with HT-29; 24.9 µM (inactive) in the test with CCRF-CEM; > 100 µM (inactive) with EKVX; > 100 µM (inactive) with OVCAR-8; > 100 µM (inactive) with HOP-62. Further, the GI50 in the test on UO-31 was > 100 µM (inactive); in the test with NCI-H460, 54.7 µM (inactive); in the test on SW-620, > 100 µM (inactive); in the test on U-251, > 100 µM (inactive); with SK-MEL-2 it was > 100 µM (inactive); in the test with T47D, 33.8 µM (inactive). The GI50 in the test on RPMI-8226 was 30.1 µM (inactive); in the test on OVCAR-4, > 100 µM (inactive); with Malme-3M, > 100 µM (inactive); with HCC 2998 it was 49.4 µM (inactive); in the test on MOLT-4 it was 22.4 µM (inactive); in the test on M14, 51.1 µM (inactive). Besides, in the test with OVCAR-5, the GI50 is > 100 µM (inactive).
`COc1cc(/C=C/C(=O)c2ccc(NS(=O)(=O)c3cc([N+](=O)[O-])ccc3C)cc2)cc(OC)c1OC`: the GI50 is 4.26 µM (inactive) in the test on COLO 205; 4.38 µM (inactive) with HT-29; 2.2 µM (inactive) in the test on CCRF-CEM; 5.36 µM (inactive) with EKVX; 2.49 µM (inactive) in the test on OVCAR-8; 2.99 µM (inactive) with HOP-62. In addition, the GI50 is 5.82 µM (inactive) in the test on UO-31; 4.49 µM (inactive) with SW-620; 3.37 µM (inactive) with U-251; 2.67 µM (inactive) in the test with SK-MEL-2; 12.1 µM (inactive) in the test on T47D; 1.96 µM (inactive) with RPMI-8226. The GI50 in the test with OVCAR-4 is 3.19 µM (inactive); in the test with MOLT-4, 1.85 µM (inactive); with M14, 2.99 µM (inactive); in the test on SR, 1.82 µM (inactive); in the test with OVCAR-5, 4.37 µM (inactive).
With `Cc1cc(C)n2c(nc3ccccc32)c1C#N`, the GI50 in the test on COLO 205, in the test on HT-29, with CCRF-CEM, in the test on EKVX, with OVCAR-8 and with UO-31 was > 100 µM (inactive) in each case. The GI50 in the test on NCI-H460 is > 10 µM (inactive); in the test on SW-620, > 100 µM (inactive); with U-251, > 100 µM (inactive); in the test on SK-MEL-2, > 100 µM (inactive); in the test on T47D, > 100 µM (inactive); in the test on OVCAR-4, 10.8 µM (inactive). Besides, the GI50 in the test on Malme-3M was > 100 µM (inactive); in the test on HCC 2998, > 100 µM (inactive); in the test with MOLT-4, 93.8 µM (inactive); with M14, > 100 µM (inactive); in the test with OVCAR-5 it was > 100 µM (inactive).
As for `Nc1nc(Nc2ccccc2)c2[nH]cnc2n1`, the GI50 in the test on COLO 205 is 89.9 µM (inactive); with HT-29 it was 63.7 µM (inactive); in the test with CCRF-CEM, 50.7 µM (inactive); in the test on EKVX, > 100 µM (inactive); with OVCAR-8, > 100 µM (inactive); in the test on HOP-62 it was > 100 µM (inactive). The GI50 in the test with UO-31 is 34.8 µM (inactive); with SW-620, > 100 µM (inactive); in the test with U-251, > 100 µM (inactive); in the test on SK-MEL-2, 66.2 µM (inactive); in the test with T47D, > 100 µM (inactive); in the test with RPMI-8226 it was 53.7 µM (inactive). Also, the GI50 is > 100 µM (inactive) in the test on OVCAR-4; 30.6 µM (inactive) with Malme-3M; 86.3 µM (inactive) in the test with HCC 2998; 38.9 µM (inactive) with MOLT-4; > 100 µM (inactive) in the test with M14.
Turning to `CC1(C)O[C@@H]([C@@H](O)[C@H](O)C2SCCCS2)[C@@H](CO)O1`, the GI50 in the test on COLO 205, with HT-29, with CCRF-CEM, in the test on EKVX, in the test on OVCAR-8 and in the test with HOP-62 was > 100 µM (inactive) each time. In addition, the GI50 with UO-31, in the test on NCI-H460, with SW-620, with U-251, in the test on SK-MEL-2 and with T47D was > 100 µM (inactive) in each case. Further, the GI50 with RPMI-8226, in the test with Malme-3M, in the test with MOLT-4, in the test on M14 and with OVCAR-5 was > 100 µM (inactive) throughout.
`O=C1N/C(=N/N=C/C(O)C(O)C(O)CO)N/C1=C\c1c[nH]c2ccccc12` (stereo not given): the GI50 with COLO 205 was > 100 µM (inactive); in the test on HT-29 it was > 100 µM (inactive); with CCRF-CEM, 41.7 µM (inactive); with EKVX, > 100 µM (inactive); in the test with OVCAR-8 it was > 100 µM (inactive); in the test with HOP-62, > 100 µM (inactive). The GI50 in the test on NCI-H460, in the test on SW-620, in the test with U-251, with T47D, in the test on RPMI-8226 and with OVCAR-4 was > 100 µM (inactive) throughout. For the same compound, the GI50 with Malme-3M, with HCC 2998, in the test on MOLT-4, in the test on M14 and with OVCAR-5 was > 100 µM (inactive) each time.
